According to US20160346249A1 (priority 2012, published 2016):

Legend:
[1] = Male rat fertility study
Method: Physical signs, body weight, and food consumption were recorded periodically. Males were housed for up to 10 nights 1:1 with untreated females following approximately 10 weeks of treatment. Mating was confirmed by daily examination of females for the presence of a vaginal copulatory plug or sperm in a vaginal lavage. The day of observing a seminal plug and/or sperm was considered GD 0. Females were euthanized on GD 15, 16, or 17 and the uterus of each female rat was examined to determine pregnancy status. Corpora lutea per female were counted. Uterine implantations were counted, and each was classified as a live fetus, dead fetus, or a resorption. At termination, the left cauda epididymis from males were weighed, and frozen. Subsequently, these tissues were prepared and analyzed for sperm number. At necropsy, a sperm suspension from the mid-region of the left vas deferens of each male was prepared and evaluated for percent motile sperm (from ≧150 cells per male).

[2] = in vivo; conditions: Crl:CD-1(ICR) BR, mouse, po; for AUC(0-t): AUC0-24
[3] = Multiple-dose safety and PK study 25 mg BID and 50 mg BID for 10 days; type: in vivo, human; conditions: for drug accumulation: 10 days; for Cmax / Tmax / half-life / AUC(0-t): male, human, in vivo, healthy male subjects, mean (SD); for AUC(0-t): read-out: AUC0-12
Excerpt: Twenty-two male subjects were randomized for the study and received study medication.

[4] = Dog oral cardiovascular (radiotelemetry) study; type: in vivo
Method: There were four male and four female dogs per group. Surgical implantation of radiotelemetry devices occurred under anesthesia approximately 1 week prior to study initiation. The test article was administered according to a Latin square design such that each radiotelemetry-implanted dog received each treatment once, with a 7-day washout period between doses. Clinical examinations and detailed physical examinations were performed, and individual body weights were recorded on dosing days.

[5] = 13-week rat toxicity and toxicokinetic study; type: in vivo; conditions: for AUC(0-t): read-out: AUC0-24
Method: In two separate experiments, toxicology and toxicokinetic studies were performed. […] Blood samples were collected on Day 0 and Day 87 of the study from up to 3 animals/gender/group.
For toxicology assessment, clinical observations, body weight and food consumptions measures were noted periodically during the study. At termination, clinical pathology evaluations (hematology and serum chemistry) were performed, necropsies conducted, selected organs were weighed, and selected tissues examined microscopically.

[6] = female, Crl:CD (SD)IGS BR, rat, in vivo, po, 10 mg/kg/day, females, 10 mg/kg/day, Day 0
[7] = female, Crl:CD(SD)IGS BR, rat, in vivo, po, 10 mg/kg/day, females, 10 mg/kg/day, Day 87
[8] = female, Crl:CD(SD)IGS BR, rat, in vivo, po, 25 mg/kg/day, females, 25 mg/kg/day, Day 0
[9] = female, Crl:CD(SD)IGS BR, rat, in vivo, po, 25 mg/kg/day, females, 25 mg/kg/day, Day 87
[10] = female, Crl:CD(SD)IGS BR, rat, in vivo, po, 60 mg/kg/day, females, 60 mg/kg/day, Day 0
[11] = female, Crl:CD(SD)IGS BR, rat, in vivo, po, 60 mg/kg/day, females, 60 mg/kg/day, Day 87
[12] = male, Crl:CD(SD)IGS BR, rat, in vivo, po, 10 mg/kg/day, males, 10 mg/kg/day, Day 0
[13] = male, Crl:CD(SD)IGS BR, rat, in vivo, po, 10 mg/kg/day, males, 10 mg/kg/day, Day 87
[14] = male, Crl:CD(SD)IGS BR, rat, in vivo, po, 25 mg/kg/day, males, 25 mg/kg/day, Day 0
[15] = male, Crl:CD(SD)IGS BR, rat, in vivo, po, 25 mg/kg/day, males, 25 mg/kg/day, Day 87
[16] = male, Crl:CD(SD)IGS BR, rat, in vivo, po, 60 mg/kg/day, males, 60 mg/kg/day, Day 0
[17] = male, Crl:CD(SD)IGS BR, rat, in vivo, po, 60 mg/kg/day, males, 60 mg/kg/day, Day 87

## Clc1ccc([C@]23CNC[C@H]2C3)cc1Cl [amitifadine, (+)-1-(3,4-dichlorophenyl)-3-azabicyclo[3.1.0]hexane]
[1]; 13 mg/kg/day
  decrease in sperm count/g cauda epididymis: −18%
  decreased mean body weight gain: 7%
  decreases in fecundity and fertility indices: −9%
[1]; 39 mg/kg/day
  decrease in percent motile sperm: −33%
  decreased mean body weight gain: 9%
  decreased sperm count/g cauda epididymis: −44%
  decreases in fecundity and fertility indices: −9%
[1]; 39 mg/kg/day, first week
  decreased mean food consumption: −60%
[1]; 39 mg/kg/day, initial week
  mean body weight loss: -24 g
[1]; male, Crl:CD(SD) IGS BR, rat, in vivo, 14 weeks
  NOEL general and reproductive toxicity: 4 mg/kg/day
[2]; female, 10 mg/kg/day
  AUC(0-t): 2.49 µg·h/mL
  Cmax: 0.323 µg/mL
  Tmax: 2 h
[2]; female, 30 mg/kg/day
  AUC(0-t): 9.92 µg·h/mL
  Cmax: 1.14 µg/mL
  Tmax: 2 h
[2]; female, 100 mg/kg/day
  AUC(0-t): 20.2 µg·h/mL
  Tmax: 2 h
[2]; female, 150 mg/kg/day
  Cmax: 4.94 µg/mL
  Tmax: 2 h
[2]; male, 10 mg/kg/day
  AUC(0-t): 1.97 µg·h/mL
  Cmax: 0.261 µg/mL
  Tmax: 1 h
[2]; male, 30 mg/kg/day
  AUC(0-t): 12.8 µg·h/mL
  Cmax: 1.06 µg/mL
  Tmax: 1 h
[2]; male, 100 mg/kg/day
  AUC(0-t): 22.3 µg·h/mL
  Cmax: 3.9 µg/mL
  Tmax: 2 h
[2]; male, 150 mg/kg/day
  AUC(0-t): 71.1 µg·h/mL
  Cmax: 5.61 µg/mL
  Tmax: 1 h
[3]; 25 mg BID
  drug accumulation: 1.27
[3]; 50 mg BID
  drug accumulation: 1.44
[3]; 25 mg, 25 mg BID, Day 1
  Cmax: 0.327 µg/mL
  Tmax: 0.9 h
  half-life: 3.27 h
  AUC(0-t): 1.36 µg·h/mL
[3]; 25 mg, 25 mg BID, Day 10
  Cmax: 0.388 µg/mL
  Tmax: 1.07 h
  half-life: 3.34 h
  AUC(0-t): 1.7 µg·h/mL
[3]; 50 mg, 50 mg BID, Day 1
  Cmax: 0.496 µg/mL
  half-life: 3.19 h
  AUC(0-t): 2.23 µg·h/mL
[3]; 50 mg, 50 mg BID, Day 10
  Cmax: 0.744 µg/mL
  Tmax: 1.18 h
  half-life: 2.97 h
  AUC(0-t): 3.2 µg·h/mL
[4]; 10 mg/kg oral
  change in QTcV interval: < 2%
[4]; single oral capsule
  NOEL: 10 mg/kg
[5]; 60 mg/kg/day, first week
  test article-related deaths (number of females): Three
[5]; all dose groups
  female vs male AUC0-24 and Cmax difference: up to 85%
[5]; both sexes, Crl:CD(SD)IGS BR, rat, in vivo, oral gavage, 13 weeks
  NOAEL at 13 weeks: 10 mg/kg/day
[5]; [6]
  Tmax: 1 h
  AUC(0-t): 10.9 µg·h/mL
[5]; female, Crl:CD(SD)IGS BR, rat, in vivo, oral, 10 mg/kg/day, females, 10 mg/kg/day, Day 87
  AUC(0-t): 14.3 µg·h/mL
[5]; [7]
  Cmax: 1.85 µg/mL
  Tmax: 1 h
[5]; [8]
  Cmax: 2.81 µg/mL
  Tmax: 2 h
  AUC(0-t): 31 µg·h/mL
[5]; [9]
  Cmax: 3.7 µg/mL
  Tmax: 2 h
  AUC(0-t): 30.2 µg·h/mL
[5]; [10]
  Cmax: 6.6 µg/mL
  Tmax: 2 h
  AUC(0-t): 54.4 µg·h/mL
[5]; [11]
  Cmax: 6.53 µg/mL
  Tmax: 2 h
  AUC(0-t): 88.1 µg·h/mL
[5]; females, 25 mg/kg/day
  decrease in mean cumulative body weight gain vs control: 13%
[5]; females, 60 mg/kg/day
  decrease in mean cumulative body weight gain vs control: 13%
[5]; male, Crl:CD(SD)IGS BR, rat, in vivo, oral, 10 mg/kg/day, males, 10 mg/kg/day, Day 87
  AUC(0-t): 8.13 µg·h/mL
[5]; [12]
  Cmax: 0.863 µg/mL
  Tmax: 2 h
  AUC(0-t): 5.94 µg·h/mL
[5]; [13]
  Cmax: 1.12 µg/mL
  Tmax: 1 h
[5]; [14]
  Cmax: 2.35 µg/mL
  Tmax: 2 h
  AUC(0-t): 17.4 µg·h/mL
[5]; [15]
  Cmax: 2.49 µg/mL
  Tmax: 2 h
  AUC(0-t): 22 µg·h/mL
[5]; [16]
  Cmax: 3.69 µg/mL
  Tmax: 1 h
  AUC(0-t): 36.3 µg·h/mL
[5]; [17]
  Cmax: 5.01 µg/mL
  Tmax: 1 h
  AUC(0-t): 60.1 µg·h/mL
[5]; males, 25 mg/kg/day
  decrease in mean cumulative body weight gain vs control: 16%
[5]; males, 60 mg/kg/day
  decrease in mean cumulative body weight gain vs control: 30%
